# Results published in US20170360795A1, “TREATMENT OF CANCERS USING PI3 KINASE ISOFORM MODULATORS” (INFINITY PHARMACEUTICALS, INC., priority 2013, published 2017).
# Experiments:
# [1] = test system: TNF-α and IL-10 production; experiment: LPS-stimulated cytokine production in diluted whole blood; type: cell-based; details: diluted whole blood (1:1), 24 hours pre-treatment, 100 μg/mL LPS
# phospho-BTK in SU-DHL-4 = experiment: phospho-BTK in DLBCL cells; type: cell-based; details: SU-DHL-4 cells
# circulating CLL cells = experiment: Circulating CLL cells in treated CLL patients; type: in vivo, human; details: 25 mg BID
# [2] = Phase 1 dose-escalation study in hematologic malignancies: pharmacokinetics; type: in vivo, human; details: patients, over the dose range studied
# Method: PK and PD markers were evaluated after the first dose (e.g., 8 mg BID) and at steady state. PD activity (PI3K inhibition) in whole blood was evaluated using a basophil activation assay which measured reduction in CD63 expression on the surface of basophils following ex vivo stimulation.
# [3] = test system: CD38/CD69 positive CLL cells; experiment: phosphospecific flow cytometry of circulating CLL cells in patients; type: in vivo, human; details: 25 mg BID
# Text: In order to characterize the surface phenotype of the cells present in CLL patients, antibodies against, among others, CD38 and CD69 were included in the panel, and the samples were subjected to phosphor-specific flow cytometry.
# [4] = test system: SU-DHL-4 GCB DLBCL cell line; experiment: cell viability CellTiter Glo, 72 hours, with ibrutinib; type: cell-based; details: SU-DHL-4, monotherapy
# [5] = test system: diluted whole blood stimulated with LPS; experiment: Cytokine production from diluted whole blood stimulated with LPS; type: cell-based
# OCI-LY-8 = experiment: cellular growth inhibition assay, DLBCL; type: cell-based
# PTEN deletion cell lines = experiment: sensitivity of PTEN deletion cell lines; type: cell-based
# U2932 = experiment: cellular growth inhibition assay (72 hour CTG), DLBCL; type: cell-based
# migration of CLL cells = experiment: chemotaxis assay; type: cell-based; details: n=8
# Text: (FIGS. 35 and 36). […] In addition, this direct inhibitory effect on CLL cells in the lymph nodes could lead to rapid and prolonged responses in cancer patients.
# central nervous system = experiment: Neurofunctional study (FOB, motor activity); type: in vivo, Sprague-Dawley rat
compound,measurement,setting,value
C[C@H](Nc1ncnc2[nH]cnc12)c1cc2cccc(Cl)c2c(=O)n1-c1ccccc1 [Compound 292],cytokine (TNF-α and IL-10) production,[1],inhibition
same,level of pBTK (phospho-BTK),phospho-BTK in SU-DHL-4,not modulated
same,dose limiting toxicity,15 mg BID cohort,Grade 4 neutropenia
same,new Grade >3 neutropenia,"20 patients, 8-50 mg BID",6 (30%) n (%)
same,new Grade >3 thrombocytopenia,"20 patients, 8-50 mg BID",1 (5%) n (%)
same,patients with AEs Grade >3,"20 patients, 8-50 mg BID",7 (35%) n (%)
same,patients with adverse events (AEs),"20 patients, 8-50 mg BID",13 (65%) n (%)
same,Grade 3 ALT/AST elevations,"20 patients, MM patient, onset 6 weeks after initiation of dosing",1 (5%) n (%)
same,CD38/CD69 double positive circulating CLL cells,circulating CLL cells,reduction
same,CD38 positive circulating CLL cells,circulating CLL cells,reduction
same,CD69 positive circulating CLL cells,circulating CLL cells,reduction
same,plasma Cmax and AUC versus dose,[2],dose-proportional increases
same,"CD38 positive, CD69 positive and CD38/CD69 double positive circulating CLL cells",[3],significant reductions
same,viability of DLBCL cells,[4],dose dependently inhibited
same,TNF-α production,[5]; FIG. 14A,inhibits
same,IL-10 production,[5]; FIG. 14B,inhibits
same,"IC50, cellular growth inhibition","OCI-LY-8; OCI-LY-8 (GCB), without BCR crosslinking",low micromolar (μM) range
same,sensitivity in cellular growth inhibition assay,OCI-LY-8; OCI-LY-8 with BCR crosslinking,nM range
same,sensitivity,PTEN deletion cell lines; 145 subsets of PTEN deletion cell lines,differentially susceptible
same,sensitivity,PTEN deletion cell lines; PTEN wild type cells,not sensitive
same,"IC50, cellular growth inhibition",U2932,non responsive
same,"reduction in migration of CLL cells, % control reduction, range",migration of CLL cells,2-42%
same,locomotor activity,central nervous system; 2 h after a 350 mg/kg dose,Significant decreases
same,effects on the central nervous system,central nervous system; dose levels ≦50 mg/kg,No effects
